# From PMC10766610, “DCAF1-based PROTACs with activity against clinically validated targets overcoming intrinsic- and acquired-degrader resistance” (Nature Communications, 2024)
# Read-outs that look alike come from different tables or passages of the source.
# Tests used:
# [1] = molecular target: T1, BRD7 (Homo sapiens, UniProt Q9NPI1); assay: BRD7-HiBiT protein abundance luminescence assay in HEK293 cells
# T1 sequence (Q9NPI1 1-651): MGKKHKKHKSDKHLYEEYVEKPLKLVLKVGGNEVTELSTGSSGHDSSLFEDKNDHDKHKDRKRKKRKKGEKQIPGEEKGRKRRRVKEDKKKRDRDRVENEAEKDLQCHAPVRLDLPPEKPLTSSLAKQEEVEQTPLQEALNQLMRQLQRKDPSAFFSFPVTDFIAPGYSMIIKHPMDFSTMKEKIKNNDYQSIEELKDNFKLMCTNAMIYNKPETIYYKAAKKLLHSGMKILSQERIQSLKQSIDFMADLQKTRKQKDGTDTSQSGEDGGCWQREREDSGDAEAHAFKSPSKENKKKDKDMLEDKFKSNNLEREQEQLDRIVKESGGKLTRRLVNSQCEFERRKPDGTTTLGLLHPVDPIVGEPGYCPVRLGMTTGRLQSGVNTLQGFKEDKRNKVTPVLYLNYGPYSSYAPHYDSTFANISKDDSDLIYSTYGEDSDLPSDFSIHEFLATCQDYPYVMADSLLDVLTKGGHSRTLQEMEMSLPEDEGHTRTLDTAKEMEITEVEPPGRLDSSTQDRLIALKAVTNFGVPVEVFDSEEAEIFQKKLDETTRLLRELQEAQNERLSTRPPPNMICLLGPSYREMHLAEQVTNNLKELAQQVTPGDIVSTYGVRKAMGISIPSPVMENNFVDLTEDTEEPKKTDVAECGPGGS
# Description: HEK293/BRD9-HiBiT pools (PROMEGA # CS3023120) and HEK293/BRD7-HiBiT pools (PROMEGA # CS3023124) were purchased from Promega. We performed clonal selection for HEK293/BRD9-HiBiT cell line using single-cell sorting and screening for HiBiT expression using Nano-Glo HiBiT Lytic Detection System (Promega # N3030). The HEK293/BRD9-HiBiT clone and HEK293/BRD7-HiBiT pool to perform standard HiBiT assays.
# [2] = molecular target: T2, BRD9 (Homo sapiens, UniProt Q9H8M2); assay: Capillary western of BRD9 in 768-O cells; assay type: cell-based; conditions: 768-O cells lacking VHL expression
# T2 sequence (Q9H8M2 1-597): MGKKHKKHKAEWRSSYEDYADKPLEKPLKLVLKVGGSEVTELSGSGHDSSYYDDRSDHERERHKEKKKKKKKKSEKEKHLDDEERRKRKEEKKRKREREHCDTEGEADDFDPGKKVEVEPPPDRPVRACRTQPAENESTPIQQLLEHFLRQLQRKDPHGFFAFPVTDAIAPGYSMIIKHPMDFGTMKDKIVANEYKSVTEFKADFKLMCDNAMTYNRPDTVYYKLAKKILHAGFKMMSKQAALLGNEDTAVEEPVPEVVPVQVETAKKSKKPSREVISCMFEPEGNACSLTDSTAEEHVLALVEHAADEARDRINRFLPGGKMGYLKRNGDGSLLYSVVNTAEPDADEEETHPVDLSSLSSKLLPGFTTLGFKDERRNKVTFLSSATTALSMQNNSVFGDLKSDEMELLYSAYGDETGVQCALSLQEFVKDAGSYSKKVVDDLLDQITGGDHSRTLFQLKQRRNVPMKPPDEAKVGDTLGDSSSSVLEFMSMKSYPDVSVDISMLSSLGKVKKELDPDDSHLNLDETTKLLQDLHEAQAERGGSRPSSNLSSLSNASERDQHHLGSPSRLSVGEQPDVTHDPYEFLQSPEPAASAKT
# Description: Protein peaks were analyzed using Compass for Simple Western version 5.0.1 (ProteinSimple), area under the curve for both α-tubulin ([…]) and BRD9 (90 kDa) per capillary was extracted and BRD9 area was normalized to α-tubulin area on a per-capillary basis before each sample was normalized to the DMSO for each run of three triplicates.
# [3] = test system: TMD8 WT and TMD8 CRBN resist. cells; assay: CellTiter-Glo viability, TMD8 WT vs CRBN resist. cells; assay type: cell-based, human; conditions: CellTiter-Glo proliferation
# Description: TMD8 cells were grown in the presence of a CRBN-BTK PROTAC CBt using a gradual dose increase. Start treatment was 0.1 nM for 6 weeks, followed by 3 weeks at 0.4 nM and another 4 weeks at 10 nM to finally obtain CBt resistant TMD8 cells (TMD8 CRBN resist.).
# d) Viability measured by cell titer-Glo for DBt-10 (green) vs (13) (purple) in WT (solid) vs CRBN resist.
# (dotted) TMD8 cells. Data represents average ± standard deviation from n=3 replicates.
# e) Repeat of the viability measured by cell titer-Glo for DBt-10 (green) vs (13) (purple) in WT (solid) vs
# CRBN resist. (dotted) TMD8 cells with adjusted dose response range. Data represents average ±
# standard deviation from n=3 replicates.
# (§1) Source data are provided as a Source Data file
# [4] = molecular target: T3, BTK (Homo sapiens, UniProt Q06187); assay: Immunoblot of BTK in TMD8 WT and CRBN (CBt) resistant cells; assay type: cell-based; parameters: performed with full-length BTK and endogenous DCAF1; expressed in transfected cells; host or cells: TMD8 cells, lentiviral, blasticidin-selected (TMD8 BTK-GFP/mCh); conditions: 24 h; 0.1 µM CBt, 1 µM DBt-10
# Description: Whole cell lysates for immunoblotting were prepared by pelleting cells at 4 °C (300 g) for 3 min. Cell pellets were then washed 1x with PBS and resuspended in RIPA lysis buffer (VWR, cat # 97063-270) supplemented with protease (Thermo Scientific, cat # A32955) and phosphatase (Thermo Scientific, cat # A32957) inhibitor tablets. Lysates were clarified at 16,000 × g for 15 min at 4 °C prior to quantification by Lowry assay (Bio-Rad cat # 5000113 and cat # 5000114). Whole-cell lysates were loaded into 4–20% Criterion TGX Precast 18 well gels (Bio-Rad, cat # 5671094) and separated by electrophoreses at 120 V for 1 h. The gels were transferred to a nitrocellulose membrane using the Trans-Blot Turbo (Bio-Rad) for 7 min and then blocked for 1 h at room temperature in Odyssey blocking buffer (LICOR Biosciences, cat # 927-50000). Membranes were probed with the appropriate primary antibodies (diluted 1:1000) overnight at 4 °C in 20% Odyssey blocking buffer in 1x TBST. Membranes were washed three times with 1x TBST (5 min per wash), and then incubated with IRDye goat anti-mouse (LICOR, cat # 926-32210) or goat anti-rabbit (LICOR, cat # 926-32211) secondary antibody diluted 1:10,000 in 20% Odyssey blocking buffer for 1 h at room temperature. After three 5-min washes with 1x TBST, the immunoblots were visualized using the ODYSSEY Infrared Imaging System (LICOR). […]
# [5] = molecular target: T3, BTK; assay: BTK-GFP degradation by flow cytometry in TMD8 BTK-GFP/mCh cells; assay type: cell-based; parameters: performed with full-length BTK and endogenous DCAF1; expressed in transfected cells; host or cells: TMD8 cells, lentiviral, blasticidin-selected (TMD8 BTK-GFP/mCh); conditions: TMD8 BTK-GFP/mCh, 24 h; read-out: DC50 BTK-Degradation
# Description: The bicistronic pLenti6 BTK-GFP-chysel-mCHERRY expression vector was cloned as described[92] using Gateway cloning with a pENTR-BTK plasmid lacking a STOP codon. TMD8 cells were then infected with lentiviral particles from this vector as described above and stably transfected cells were selected with blasticidin at a concentration of 10 μg/mL referred to as TMD8 BTK-GFP/mCh cells.
# (§2) For flow cytometry measurements, 25,000 exponentially growing TMD8 BTK-GFP/mCh cells were plated in 100 μL of each well of a 96-well plate and grown for 24 h. Cells were then dosed with corresponding compounds and doses from 10 mM DMSO stock for 24 h, after which GFP and mCherry fluorescence was read with a Beckmann Coulter Cytoflex. For competition experiment, both compounds were added at the same time and dosed for 24 h. Cells were gated based on Forward & Side Scatter and selection for Single cells using SSC-A vs. SSC-H. Further, the population of viable cells was defined by the forward & side-scatter characteristics of DMSO-treated cells. To confirm cells outside of this population as non-viable, cells were plated and treated for 24 h, washed with PBS and stained for 30 min with two markers of early (Annexin-V) and late (LIVE/DEAD) apoptosis. Effects on viability were measured by the reduction of the percentage of cells included in this viable-population gate with increasing doses of compound tested. Degradation of BTK was calculated based on subtracting background (BG) fluorescence of parental TMD8 signal via (GFP-BG)/(mCherry-BG) of viable cells. Median ratios of three technical (different wells) replicates were used to calculate daily averages. Each compound dose–response was generated via three biological replicates (different days of experiment). Degradation curve parameters (DC50 & Abs. DC50 & max. Deg) were extracted using GraphPad Prism’s 4-parameter logistic curve fitting.
# [6] = test system: TMD8 BTK-GFP/mCh cells; assay: Viability by FSC/SSC gate (flow cytometry) in TMD8 BTK-GFP/mCh cells; assay type: cell-based, human; parameters: Max dose w/ Gating Viability >25%: unit: µM; conditions: TMD8 BTK-GFP/mCh, 24 h
# Description: as §2, with “To confirm cells outside of this population as non-viable, cells were plated and treated for 24 h, washed with PBS and stained for 30 min with two markers of early (Annexin-V) and late (LIVE/DEAD) apoptosis.” left out
# (§3) The viability window was determined by measuring the GI50 of viability based on the percentage of cells included in the viable gate and comparing it to the DC50 of degradation. The fold-change difference describing this window is [GI50 Viability / DC50 Degradation], where values above 1 indicate a positive (lower DC50 degradation than AC50 viability) window.
# [7] = as above; assay type: cell-based, human; parameters: Max dose w/ Gating Viability >25%: unit: µM; conditions: human, TMD8 BTK-GFP/mCh cells, TMD8 BTK-GFP/mCh, 24 h
# Description: as §2, with “To confirm cells outside of this population as non-viable, cells were plated and treated for 24 h, washed with PBS and stained for 30 min with two markers of early (Annexin-V) and late (LIVE/DEAD) apoptosis.” left out
# as §3
# [8] = molecular target: T2, BRD9; assay: Rescue of DBr-1 mediated BRD9 degradation by co-treatment, BRD9-HiBiT HEK293 cells; assay type: cell-based; parameters: host or cells: HEK293/BRD9-HiBiT knock-in; clone and BRD9-HiBiT/CAS9/FF clone; conditions: (13) 1 µM, OICR8268 10 µM, BI-9564 10 µM
# Description: Supplementary figure 4. Competition experiments with DBr-1 and DBr-1-N […]
# a) BRD9-HiBiT signal detection of samples pretreated with either DMSO, 10µM OICR-8268, 1µM […]
# Data represents average ± standard deviation from n=3 replicates. DC50 values and […]
# maximal observed degradation are shown below. […]
# b) Cell titer Glow assay of BRD9 HiBiT cells. Cells pretreated with either DMSO, 10µM OICR-8268, […]
# Data represents average ± standard deviation from n=3 replicates.
# as §1
# [9] = molecular target: T2, BRD9; assay: Immunoblot of BRD9 in HEK293 BRD9-HiBiT/FF/CAS9 cells; assay type: cell-based; parameters: host or cells: HEK293/BRD9-HiBiT knock-in; clone and BRD9-HiBiT/CAS9/FF clone; conditions: 1000 nM, 6 h
# Description: Whole cell lysates for immunoblotting were prepared by pelleting cells at 4 °C (300 g) for 3 min. Cell pellets were then washed 1x with PBS and resuspended in RIPA lysis buffer (VWR, cat # 97063-270) supplemented with protease (Thermo Scientific, cat # A32955) and phosphatase (Thermo Scientific, cat # A32957) inhibitor tablets. Lysates were clarified at 16,000 × g for 15 min at 4 °C prior to quantification by Lowry assay (Bio-Rad cat # 5000113 and cat # 5000114). Whole-cell lysates were loaded into 4–20% Criterion TGX Precast 18 well gels (Bio-Rad, cat # 5671094) and separated by electrophoreses at 120 V for 1 h. The gels were transferred to a nitrocellulose membrane using the Trans-Blot Turbo (Bio-Rad) for 7 min and then blocked for 1 h at room temperature in Odyssey blocking buffer (LICOR Biosciences, cat # 927-50000). Membranes were probed with the appropriate primary antibodies (diluted 1:1000) overnight at 4 °C in 20% Odyssey blocking buffer in 1x TBST. Membranes were washed three times with 1x TBST (5 min per wash), and then incubated with IRDye goat anti-mouse (LICOR, cat # 926-32210) or goat anti-rabbit (LICOR, cat # 926-32211) secondary antibody diluted 1:10,000 in 20% Odyssey blocking buffer for 1 h at room temperature. After three 5-min washes with 1x TBST, the immunoblots were visualized using the ODYSSEY Infrared Imaging System (LICOR). Alternatively, SDS-PAGE resolved proteins were transferred to a PVDF membrane using a wet blotting system (Invitrogen). Membranes were blocked in 5% Milk-PBS-Tween 20 for 1 h and incubated with primary antibody over night at 4 °C. Secondary antibodies (secondary antibody: anti-rabbit, goat pAb to Rb-IgG (Abcam, #7090); secondary antibody: anti-mouse, sheep IgG HRP-linked (GE healthcare, #NA931V)) were incubated for 1 h at room temperature (RT) before blots were developed on film using the detection kit SuperSignal West Femto Maximum Sensitivity Substrate (Thermo Fisher, #34096).
# T3 sequence (Q06187 2-659 limits assumed): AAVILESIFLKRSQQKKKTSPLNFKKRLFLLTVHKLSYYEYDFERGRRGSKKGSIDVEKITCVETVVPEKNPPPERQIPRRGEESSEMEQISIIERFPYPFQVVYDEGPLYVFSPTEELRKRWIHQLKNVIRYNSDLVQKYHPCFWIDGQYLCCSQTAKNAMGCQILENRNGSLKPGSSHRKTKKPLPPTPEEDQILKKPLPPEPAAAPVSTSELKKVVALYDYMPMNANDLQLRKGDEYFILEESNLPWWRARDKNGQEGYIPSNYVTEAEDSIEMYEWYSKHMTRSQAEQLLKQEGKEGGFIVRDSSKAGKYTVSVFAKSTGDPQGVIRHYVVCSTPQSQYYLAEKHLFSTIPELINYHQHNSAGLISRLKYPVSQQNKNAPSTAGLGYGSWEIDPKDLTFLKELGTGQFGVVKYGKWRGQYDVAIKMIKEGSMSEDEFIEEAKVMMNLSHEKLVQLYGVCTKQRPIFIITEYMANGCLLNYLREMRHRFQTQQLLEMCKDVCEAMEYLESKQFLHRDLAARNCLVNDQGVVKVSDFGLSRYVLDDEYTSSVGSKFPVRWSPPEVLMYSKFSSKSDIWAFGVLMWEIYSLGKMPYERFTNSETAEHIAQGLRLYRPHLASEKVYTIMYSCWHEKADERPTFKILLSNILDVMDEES
smiles,measurement,setting,value
COc1cc(-c2cn(C)c(=O)c3cnccc23)cc(OC)c1CN1CCN(CCCCCOc2cc(-c3scnc3C)ccc2CNC(=O)[C@@H]2C[C@@H](O)CN2C(=O)[C@@H](NC(=O)C2(F)CC2)C(C)(C)C)CC1 [VZ185],"maximal observed degradation (BRD7), % in brackets",[1]; 2 h,21%
same,DC50,"[1]; read-out: rel. DC50 (BRD7), 2 h",0.137 µM
same,BRD9 levels in 768-O cells,[2],intrinsic resistance
C=CC(=O)N1CCC[C@@H](n2nc(-c3ccc(Oc4ccccc4)cc3)c3c(N)ncnc32)C1 [ibrutinib],relative potency change between CBt sensitive and resistant TMD8 cells,[3],neither inhibitor showed any relative potency change
"COc1ccc(C(=O)N2CCC3(CCN(CCc4ccc(-c5cc6c(-c7cc(F)cc(NC(=O)c8ccc(C(C)(C)O)cc8F)c7C)ncnc6[nH]5)cc4)CC3)CC2)cc1N1CCC(=O)NC1=O [CBt, reference compound]",BTK degradation in TMD8 CBt sensitive (WT) vs resistant cells,[4],BTK degradation only in the WT but not in the CBt-resistant TMD8 cells
"CCN(CC)Cc1ccc(-c2cc3c(-c4cc(F)cc(NC(=O)c5ccc(C(C)(C)O)cc5F)c4C)ncnc3[nH]2)cc1 [compound 17, reference compound]",DC50,[5],> 25 µM
same,Max dose w/ Gating Viability >25%,[6],5.39
same,GI50 at 24 h,[7]; read-out: Abs GI50,6.82 µM
same,GI50 at 24 h,[7]; read-out: GI50,6.75 µM
same,relative potency change between CBt sensitive and resistant TMD8 cells,[3],neither inhibitor showed any relative potency change
"COc1cc(-c2cn(C)c(=O)c3cnccc23)c(OC)cc1CN(C)C [BI-9564, reference compound]",effect of co-treatment on DBr-1 mediated BRD9 degradation,[8],fully rescue the BRD9 degradation
same,BRD9 protein reduction by individual binders,[9],No BRD9 protein reduction
